Test results reported in ChEMBL document CHEMBL3400015, “Tertiary amides of Salinomycin: A new group of antibacterial agents against Bacillus anthracis and methicillin-resistant Staphylococcus epidermidis” (Bioorg Med Chem Lett, 2015).
Values after ≈ are worked out from the molar mass of the structure shown.

Columns and labels:
[1] = test system: Bacillus subtilis; assay: Genotoxicity in rec-positive Bacillus subtilis H17 at 2 ug/9 mm disc after 24 hrs by disc diffusion method; format: toxicity, organism-based
[2] = test system: Bacillus subtilis; assay: Genotoxicity in rec-negative Bacillus subtilis M45 at 2 ug/9 mm disc after 24 hrs by disc diffusion method; format: toxicity, organism-based
[3] = test system: Bacillus anthracis; assay: Antimicrobial activity against Bacillus anthracis 34F2 after 18 hrs by twofold serial broth dilution method; format: functional; settings: 34F2, 18 h

Row | Compound | diameter of the inhibition zone (DIZ) [1] [mm] | diameter of the inhibition zone (DIZ) [2] [mm] | MIC [3] [µg/mL]
1 | O=[N+]([O-])c1cc[n+]([O-])c2ccccc12 [4-NITROQUINOLINE-1-OXIDE] | 13 | 24 | –
2 | CC[C@@H](C(=O)[C@@H](C)[C@@H](O)[C@H](C)[C@@H]1O[C@@H]([C@@H](CC)C(=O)O)CC[C@@H]1C)[C@H]1O[C@]2(C=C[C@@H](O)[C@]3(CC[C@@](C)([C@H]4CC[C@](O)(CC)[C@H](C)O4)O3)O2)[C@H](C)C[C@@H]1C [SALINOMYCIN] | 31 | 32 | 1 (≈ 1.33 µM)
3 | CC[C@@]1([C@H]2O[C@H]([C@H]3O[C@@](O)(CO)[C@H](C)C[C@@H]3C)C[C@H]2C)CC[C@H]([C@@]2(C)CC[C@]3(C[C@H](O)[C@@H](C)[C@@H]([C@H](C)[C@H](OC)[C@@H](C)C(=O)[O-])O3)O2)O1.[Na+] [MONENSIN SODIUM] | – | – | 1
4 | CC[C@@H](C(=O)[C@@H](C)[C@@H](O)[C@H](C)[C@@H]1O[C@@H]([C@@H](CC)C(=O)[O-])CC[C@@H]1C)[C@H]1O[C@]2(C=C[C@@H](O)[C@]3(CC[C@@](C)([C@H]4CC[C@](O)(CC)[C@H](C)O4)O3)O2)[C@H](C)C[C@@H]1C.[Na+] [SALINOMYCIN SODIUM] | – | – | 1
